Data reported in patent US20040266742A1, “Combination therapy of an sodm and a corticosteroid for prevention and/or treatment of inflammatory disease” (priority 2001, published 2004).
“Also recorded” adds a separate entry of the source.

Assays:
[1] = system: carrageenan-induced paw edema; test: Carrageenan-induced paw edema in rats; format: in vivo, sprague dawley rats
Method: Dexamethasone was given by lavage one hour before carrageenan. […] (1 mg/kg) was given intravenously 15 minutes before carrageenan. Male sprague dawley rats weighing between 200 and 210 g were used. Paw edema was monitored for 6 hours. Results express delta change from basal. Each number is the mean+s.e.m. for n=4 rats per group.

[2] = relative potency; cited from earlier work
[3] = cited from earlier work
[4] = relative potency; cited from earlier work; remark: listed apart in the source
[5] = system: nitrotyrosine; test: Nitrotyrosine immunostaining in paw/joint of collagen-induced arthritis rats; format: in vivo, Lewis rats; settings: day 35; low doses alone: DEX 0.01 mg/kg or M40403 2 mg/kg
Method: (§1) Immunohistochemical Localization of Nitrotyrosine, PARS, COX-2 and iNOS At day 35, the joints organs were then trimmed, placed in decalcifying solution for 24 hours and 8 μm sections were prepared from paraffin embedded tissues. After deparaffinization, endogenous peroxidase was quenched with 0.3% H2O2 in 60% methanol for 30 minutes. The sections were permeabilized with 0.1% Triton X-100 in PBS for 20 minutes. Non-specific adsorption was minimized by incubating the section in 2% normal goat serum in phosphate buffered saline for 20 minutes. Endogenous biotin or avidin binding sites were blocked by sequential incubation for 15 minutes with avidin and biotin. Sections were incubated overnight with 1) anti-rabbit polyclonal antibody directed at iNOS (1:1000 in PBS, v/v) (DBA, Milan, Italy) or 2) with anti-COX-2 goat policlonal antibody (1:500 in PBS, v/v) or 3) with anti-nitrotyrosine rabbit policlonal antibody (1:1000 in PBS, v/v) or 4) with anti-poly (ADP-Ribose) goat policlonal antibody rat (1:500 in PBS, v/v). Controls included buffer alone or non-specific purified rabbit IgG. Specific labelling was detected with a biotin-conjugated goat anti-rabbit IgG (for nitrotyrosine and iNOS) or with a biotin-conjugated […] and avidin-biotin peroxidase complex. […]

[6] = Body weight gain in collagen-induced arthritis rats; format: in vivo, Lewis rats; settings: day 25 to 35; low doses alone: DEX 0.01 mg/kg or M40403 2 mg/kg
From the text: Animals were randomly divided into six groups (n=10 for each group) as follows: […]

[7] = system: PARS; test: PARS immunostaining in paw/joint of collagen-induced arthritis rats; format: in vivo, Lewis rats; settings: day 35; low doses alone: DEX 0.01 mg/kg or M40403 2 mg/kg
Method: as §1

[8] = system: COX-2; test: COX-2 immunostaining in paw/joint of collagen-induced arthritis rats; format: in vivo, Lewis rats; settings: day 35; low doses alone: DEX 0.01 mg/kg or M40403 2 mg/kg
Method: as §1

[9] = system: iNOS; test: iNOS immunostaining in paw/joint of collagen-induced arthritis rats; format: in vivo, Lewis rats; settings: day 35; low doses alone: DEX 0.01 mg/kg or M40403 2 mg/kg
Method: as §1

Row | Compound | Na+-retaining Potency [2] | Duration (T½, Hours) [3] [h] | Anti-inflammatory Potency [4] | also measured
1 | 5,10,15,20-tetrakis (2,4,6-trimethyl-3,5-disulfonatophenyl)-porphyrinato iron (III) [FeTMPS] | – | – | – | Paw edema, delta change from basal ([1]; FeTMPS 1 mpk intravenously 15 minutes before carrageenan, 0 h post carrageenan): 0; Paw edema, delta change from basal ([1]; FeTMPS 1 mpk, 1 h post carrageenan): 0.6 ± 0.02; Paw edema, delta change from basal ([1]; FeTMPS 1 mpk, 2 h post carrageenan): 0.9 ± 0.05; Paw edema, delta change from basal ([1]; FeTMPS 1 mpk, 3 h post carrageenan): 1.1 ± 0.01; Paw edema, delta change from basal ([1]; FeTMPS 1 mpk, 4 h post carrageenan): 1.2 ± 0.02; Paw edema, delta change from basal ([1]; FeTMPS 1 mpk, 5 h post carrageenan): 1 ± 0.03; Paw edema, delta change from basal ([1]; FeTMPS 1 mpk, 6 h post carrageenan): 1.3 ± 0.02
2 | C[C@H]1C[C@@H]2[C@H]([C@@H](O)C[C@@]3(C)[C@H]2CC[C@]3(O)C(=O)CO)[C@@]2(C)C=CC(=O)C=C12 [6a-Methyl-prednisolone] | 0.5 | 12 to 36 | 5 | –
3 | C[C@]12CCC(=O)C=C1CC[C@@H]1[C@@H]2[C@@H](O)C[C@@]2(C)[C@H]1CC[C@]2(O)C(=O)CO [Cortisol] | 1 | 8 to 12 | 1 | –
4 | C[C@]12CCC(=O)C=C1CC[C@@H]1[C@@H]2C(=O)C[C@@]2(C)[C@H]1CC[C@]2(O)C(=O)CO [Cortisone] | 0.8 | – | 0.8 | –
5 | C[C@]12CCC(=O)C=C1CC[C@H]1[C@@H]3CC[C@](O)(C(=O)CO)[C@@]3(C)C[C@H](O)[C@@]12F [Fludrocortisone] | – | 8 to 12 | – | –
6 | [Cl-].[Cl-].[Mn+2].c1cc2nc(c1)CN[C@@H]1CCCC[C@H]1NCCN[C@@H]1CCCC[C@H]1NC2 [M40403] | – | – | – | Nitrotyrosine immunostaining in joint [5]: No significant protective effect; Body weight gain [6]: gained weight in a manner that was similar to CIA rats; also recorded: gained significantly less weight than the normal rats; PARS immunostaining in joint [7]: No significant protective effect; COX-2 immunostaining in joint [8]: had no effect on iNOS or COX-2 staining; iNOS immunostaining in joint [9]: had no effect on iNOS or COX-2 staining
7 | C[C@]12C=CC(=O)C=C1CC[C@@H]1[C@@H]2[C@@H](O)C[C@@]2(C)[C@H]1CC[C@]2(O)C(=O)CO [Prednisolone] | 0.8 | 12 to 36 | 4 | –
8 | C[C@]12C=CC(=O)C=C1CC[C@@H]1[C@@H]2C(=O)C[C@@]2(C)[C@H]1CC[C@]2(O)C(=O)CO [Prednisone] | – | 12 to 36 | – | –
9 | C[C@]12C=CC(=O)C=C1CC[C@H]1[C@@H]3C[C@@H](O)[C@](O)(C(=O)CO)[C@@]3(C)C[C@H](O)[C@@]12F [Triamcinolone] | 0 | 12 to 36 | 5 | –
